Test results from patent US20240343747A1, “Heteroaryl compounds as inhibitors of TYK2, composition and application thereof” (Accro Bioscience (HK) Limited, priority 2021, published 2024).

What was measured:
[1] = system: production of CXCL-10 stimulated by IFNα in PBMC; test: ELISA: production of CXCL-10 stimulated by IFNα in PBMC; assay type: cell-based; conditions: CXCL-10 production stimulated by IFNα in PBMC; for IC50: ELISA
Procedure: • 1. Soak plate: Add 300 μL 1×washing solution and let stand for 30 seconds. After discarding the washing solution, dry the microporous plate on absorbent paper. • 2. Add standard: Add 100 μL of 2-fold standard to standard well. Add 100 μL standard dilution (serum/plasma sample) or culture medium (cell culture supernatant sample) to blank well. • 3. Add sample: Serum/plasma: Add 50 μL 1×assay buffer and 50 μL sample to sample well. Cell culture supernatant: Add 100 μL cell culture supernatant to sample well. • 4. Add detection antibody: Add 50 μL diluted detection antibody (1:100 diluted) to each well. Make sure steps 4, 5 and 6 are added continuously without interruption. The sampling process was completed within 15 minutes. • 5. Incubation: Use sealing plate film to seal the plate. shake at 300 rpm and incubate for 2 hours at room temperature. • 6. Washing: Discard the liquid, add 300 μL of washing solution and wash the plate 6 times. pat dry on blotting paper after each wash. To obtain the desired experimental performance, the residual liquid must be completely removed. • 7. Enzyme addition: Add 100 μL diluted horseradish peroxidase labeled streptavidin to each well (1:100 diluted). • 8. Incubation: Seal the plate with a new sealing film. shake at 300 rpm and incubate at room temperature for 45 minutes. • 9. Washing. Repeat step […]. • 10. Add substrate for color development: Add 100 μL of color development substrate TMB to each well, keep away from light, and incubate at room temperature for 5-30 minutes. • 11. Add Stop Solution: Add 100 μL stop solution to each well. The color changed from blue to yellow. If the color appears green or the color changes unevenly, gently tap the frame of the plate to mix well. • 12. Assay readout: Within 30 minutes, perform dual wavelength detection using a microplate reader to measure the OD at the absorption maximum at 450 nm and reference wavelengths at 570 nm or 630 nm. The calibrated OD value is the measured value at 450 nm minus the measured value at 570 nm or 630 nm.

[2] = system: JAK2/JAK2 pathway; test: Selectivity: JAK2/JAK2 pathway, TPO-induced p-STAT3 in MEG-1 cells, western blot; assay type: cell-based; conditions: TPO 100 ng/mL
Procedure: MEG-1 cells were digested by trypsin, re-suspended in 1640 medium and counted. The compounds to be measured were added to 6 well plates (1 million/per well) for 2 hours, and then TPO (final concentration: 100 ng/mL) was added to stimulate cells for 30 minutes. The cells were collected and lysed with protein lysate. The protein was quantitatively tested by BCA kit. Finally, p-STAT3/STAT3 and internal reference protein β-actin were detected by western blot.

[3] = Plasma protein binding test, rat; assay type: in vitro ADME
Procedure: • 1. Test compound and control compound were dissolved in dimethyl sulfoxide (DMSO) to achieve 10 mM stock solutions. DMSO working solutions were prepared at 400 μM. To prepare the loading matrix, compound working solutions (5 μL) were added in a 1:200 ratio to blank matrix (995 μL), and mixed thoroughly. • 2. To prepare the time zero (TO) samples to be used for recovery determination, 50 μL aliquots of loading matrix were transferred in triplicate to the sample collection plate. The samples were immediately matched with opposite blank buffer to obtain a final volume of 100 μL of 1:1 matrix/dialysis buffer (v/v) in each well. 500 μL of stop solution were added to these TO samples. They were then stored at 2-8° C. pending further processes along with other post-dialysis samples. • 3. To load the dialysis device, an aliquot of 150 μL of the loading matrix was transferred to the donor side of each dialysis well in triplicate, and 150 μL of the dialysis buffer was loaded to the receiver side of the well. The dialysis plate was placed in a humidified incubator at 37° C. with 5% CO2 on a shaking platform that rotated slowly (about 100 rpm) for 4 hours • 4. At the end of the dialysis, aliquots of 50 μL of samples were taken from both the buffer side and the matrix side of the dialysis device. […]
The % Unbound and % Bound were calculated using the following equations: […]

[4] = system: TYK2/JAK2 pathway; test: Selectivity: TYK2/JAK2 pathway, IL-12-induced p-STAT4 in mouse spleen cells, western blot; assay type: cell-based, mice
Procedure: The spleen of mice was isolated and ground into single cells with bent tweezers. The single cells of the spleen were centrifuged for 5 minutes (400 g), and erythrocytes were lysed with ACK solution and neutralized in 1640 medium, centrifuged for 5 minutes (400 g), and then re-suspended in 1640 medium. The spleen single cell suspension was counted and incubated to a 6-well plate (5 million/well), the compound to be tested was added for 2 hours, and then IL-12 (50 ng/mL) was added to stimulate cells for 1 h. The cells were collected and lysed with protein lysate. The protein was quantitatively tested by BCA kit. Finally, p-STAT4/STAT4 and internal reference protein β-actin were detected by western blot.

[5] = system: JAK1/JAK2 pathway; test: Selectivity: JAK1/JAK2 pathway, IFN-γ-induced p-STAT1 in HT-29 cells, western blot; assay type: cell-based; conditions: IFN-γ 100 ng/mL
Procedure: HT-29 cells were digested by trypsin and suspended in DMEM medium and counted. The tested compounds were added into 6 well plates (400 000/per well) for 2 hours, then IFN-γ (100 ng/mL) was added to stimulate cells for 30 minutes. The cells were collected and lysed with protein lysate. The protein was quantitatively tested by BCA kit. Finally, p-STAT1/STAT1 and internal reference protein β-actin were detected by western blot.

fraction unbound at 4 h, 2 μM [3] | SMILES | IC50 [1] [nM] | effect on TPO-induced downstream STAT3 phosphorylation [2] | activity compared with BMS986165 [1] | inhibition of TYK2/JAK2 pathway compared with BMS986165 ([4]; IL-12) | inhibition of downstream STAT4 phosphorylation induced by IL-12 ([4]; IL-12 50 ng/mL, western blot) | effect on downstream STAT1 phosphorylation induced by IFN-γ [5]
0.045 | [2H]C([2H])([2H])NC(=O)c1nnc(NC(=O)C2CC2)cc1Nc1cccc(-c2cc(P(=O)(C3CC3)C3CC3)n(C)n2)c1OC [Compound B41, 6-(cyclopropanecarboxamido)-4-((3-(5-(dicyclopropylphosphoryl)-1-methyl-1H-pyrazol-3-yl)-2-methoxyphenyl)amino)-N-(methyl-d3)pyridazine-3-carboxamide] | 39.5 | no effect | – | – | – | –
– | CCC(=O)c1cnc(NC(=O)C2CC2)cc1Nc1cccc(-c2cc(P(=O)(C3CC3)C3CC3)n(C)n2)c1OC [Compound B37, N-(4-((3-(5-(dicyclopropylphosphoryl)-1-methyl-1H-pyrazol-3-yl)-2-methoxyphenyl)amino)-5-propionylpyridin-2-yl)cyclopropanecarboxamide] | 28.2 | no effect | more active than BMS986165 | better than BMS986165 | effectively inhibit | no effect
0.055 | CCC(=O)c1cnc(NC(=O)C2CC2)cc1Nc1cccc(-c2cc(P(C)(C)=O)n(C)n2)c1OC [Compound B2, N-(4-((3-(5-(dimethylphosphoryl)-1-methyl-1H-pyrazol-3-yl)-2-methoxyphenyl)amino)-5-propionylpyridin-2-yl)cyclopropanecarboxamide] | – | – | – | – | – | –
